Laboratory results reported in US8481551B2, “Gyrase and topoisomerase IV inhibitors” (Vertex Pharmaceuticals Incorporated, priority 2011, dated 2013).
Counter-ions that a name gives are not always drawn.

Tests used:
Aqueous solubility study = format: physicochemical
Protocol: The aqueous solubilities of compound 23 and compound W were determined according to the following procedure.
Preparation of Samples. Aqueous samples of each compound were prepared as follows. Compounds were weighed (20-30 mg compound) in 4 ml clear vials prior to adding water (0.5 mL) and stirring by magnetic stirrer. 1.0N HCl was added to the suspension to adjust the pH to the desired range. After stirring for 96 hours at room temperature, the suspension was filtered through a 0.22 micron filter (Millipore, Ultrafree centrifugal filters, Durapore PVDF 0.22 μm, Cat# UFC30GVNB). The filtrate was collected and the pH measured with a pH meter.
Preparation of Standard Solutions. […]
Solubility Analysis. Aliquots of each sample and each standard solution were analyzed by HPLC analysis (Agilent 1100, injection volume 10 μL, wavelength 271 nm, column XTerra® Phenyl 5 μm, 4.6×50 mm, Part No. 186001144, mobile phase: A: 0.1% TFA in water 0.1% TFA in AcN). […] Standard curves were obtained by plotting the average of the peak area from the HPLC versus the concentrations of the standard solutions (with appropriate corrections of the weights of the standards based on total water content of the solid as determined by elemental analysis). The concentration of each sample was calculated from the peak area of the aqueous sample from the HPLC results and the slope and intercept of the standard curves. […]

N. asteroids = experiment: MIC determination procedure for Mycobacterium species (Protocol 4); format: cell-based; conditions: N. asteroids 2039
Haemophilus influenzae = experiment: Gyrase MIC against Gram negatives, microdilution broth method (Protocol 2); format: cell-based
Escherichia coli = experiment: as above; format: cell-based
Prevotella spp. = experiment: Gyrase MIC, agar dilution method (Protocol 3); format: cell-based; conditions: 13 isolates tested
Moraxella catarrhalis = experiment: Gyrase MIC against Gram negatives, microdilution broth method (Protocol 2); format: cell-based
S. aureus (ATCC 29213) = experiment: Neutropenic rat thigh infection model; format: in vivo, Sprague Dawley rats
Text: Animals: Specific-pathogen-free, male Sprague Dawley rats weighing between 76 to 100 grams were obtained from Charles River Laboratories, Inc. (Wilmington, Mass.) and utilized in this experiment. Animals were allowed to acclimate for a minimum of seven (7) days before study commencement. Bacteria: The methicillin-sensitive Staphylococcus aureus(MSSA) ATCC strain 29213 was utilized for in vivo experimentation. The test isolate was subcultured twice onto standard microbiological agar media (trypticase soy agar with 5% sheep blood). The second transfer was made less than 24 hours before use in the preparation of the thigh infection model inoculum. Neutropenic Rat Thigh Infection Model: To induce neutropenia, rats were treated with the immunosuppressant cyclophosphamide at 150 mg/kg, administered in 1 ml by intraperitoneal (IP) injection, three day prior to infection. Rats were infected by an intramuscular (IM) 0.2 ml injection into both rear thighs with a 10^7 cfu/ml methicillin-sensitive Staphylococcus aureus 29213 suspension in normal saline. After increasing amounts of time (2-26 hours) the two rear thighs of each animal were harvested, rinsed with sterile saline, weighed, then placed in 50 ml sterile normal saline and placed on wet ice until homogenization. Approximately one-half of the total homogenized sample volume was passed through a large pore filter (to remove cartilage and large clumped pieces of tissue), diluted in saline and cultured onto agar media plates (trypticase soy agar with 5% sheep blood). All culture plates were incubated at approximately 37° C. for 18-24 hours. Colony-forming units were enumerated (in cfu/ml of homogenate) and the median for each treatment and control group was calculated. […] The median cfu/ml per group was compared to the initial bacterial density at 2 hours (Early Control) or that of the time-matched vehicle control group (Late Control; LC) group harvested simultaneously. […] After 2 hours a single group of rats (Early Control (EC) was euthanized and the thighs harvested, homogenized and plated to quantitate S. aureus burdens. The additional infected rats were treated by oral gavage with Vehicle at 10 ml/kg (20% Cavitron/1% HPMCAS-MG; […] The 8-hour treatment groups received a single treatment (QD) and were euthanized and thighs collected for cfu determination 8 hours post treatment (QD), while the 24-hour treatment groups received 2 doses 12 hours apart (q12 h) and were euthanized and thighs collected 24 hours post treatment. […] After 2 hours a single group of rats (Early Control (EC)) was euthanized and the thighs harvested, homogenized and plated to quantitate S. aureus burdens. The additional infected rats were treated by oral gavage with Vehicle at 10 ml/kg (10% Vitamin E/TPGS; […] The 8-hour treatment groups received a single treatment (QD) and were euthanized and thighs collected for cfu determination 8 hours post treatment (QD), while the 24 hour treatment groups received 2 doses 12 hours apart (q12 h) and were euthanized and thighs collected 24 hours post treatment.

Proteus mirabilis = experiment: Gyrase MIC against Gram negatives, microdilution broth method (Protocol 2); format: cell-based; conditions: 12 isolates tested
Bacillus cereus = experiment: Gyrase MIC, microdilution broth method (Protocol 1); format: cell-based
[1] = Haemophilus influenzae Rd0894 (AcrA-)
[2] = Haemophilus influenzae, 55 isolates tested
[3] = Moraxella catarrhalis, 26 isolates tested
[4] = 8 hours after the first dose, 10 mg/kg oral
[5] = Table 8: 10 mg/kg oral, QD, 8 Hours
[6] = Table 8: 10 mg/kg oral, q12 h, 24 Hours
[7] = Table 8: 30 mg/kg oral, QD, 8 Hours
[8] = Table 8: 30 mg/kg oral, q12 h, 24 Hours
[9] = Table 8: 60 mg/kg oral, QD, 8 Hours
[10] = Table 8: 60 mg/kg oral, q12 h, 24 Hours

With `CCNC(=O)Nc1nc2cc(-c3cnc(C(C)(C)O)nc3)c(F)c([C@H]3CCCO3)c2[nH]1` [Compound 23, 1-ethyl-3-[6-fluoro-5-[2-(1-hydroxy-1-methyl-ethyl)pyrimidin-5-yl]-7-[(2R)-tetrahydrofuran-2-yl]-1H-benzimidazol-2-yl]urea] as the molecule, how does the Solubility (Aqueous solubility study; 96 h) read?
Its Solubility is less than 1 µg/mL.

Which results are given for `CCNC(=O)Nc1nc2cc(-c3cnc(C(C)(C)O)nc3)c(F)c([C@H]3CCCO3)c2[nH]1` [Compound 23A, methanesulfonic acid salt of 1-ethyl-3-[6-fluoro-5-[2-(1-hydroxy-1-methyl-ethyl)pyrimidin-5-yl]-7-[(2R)-tetrahydrofuran-2-yl]-1H-benzimidazol-2-yl]urea]?
MIC (N. asteroids): 1 µg/mL; MIC (Haemophilus influenzae; ATCC49247, Haemophilus influenzae ATCC 49247): 0.5 µg/mL; MIC (Haemophilus influenzae; [1]): 0.041 µg/mL; MIC90 (Haemophilus influenzae; [2]): 1 µg/mL; MIC Range (Haemophilus influenzae; [2]): 0.06-2^ μg/ml; MIC90 (Escherichia coli; 12 isolates tested): > 8 µg/mL; MIC (Escherichia coli; ATCC25922, Escherichia coli ATCC 25922): 12 µg/mL; MIC (Escherichia coli; Escherichia coli AG100 WT): 4 µg/mL; MIC (Escherichia coli; Escherichia coli AG100 tolC): 0.063 µg/mL; MIC (Escherichia coli; Escherichia coli CHE30): 8 µg/mL; MIC (Escherichia coli; Escherichia coli CHE30 tolC): 0.125 µg/mL; MIC (Escherichia coli; Escherichia coli MC4100): > 16 µg/mL; MIC (Escherichia coli; Escherichia coli MC4100 tolC): 0.25 µg/mL; MIC90 (Prevotella spp.): 16 µg/mL; MIC Range (Prevotella spp.): 0.06 to 16 µg/mL; MIC (Moraxella catarrhalis; ATCC25238, Moraxella catarrhalis ATCC 25238): ≤ 0.016 µg/mL; MIC (Moraxella catarrhalis; ATCC49143, Moraxella catarrhalis ATCC 49143): ≤ 0.016 µg/mL; MIC90 (Moraxella catarrhalis; [3]): 0.03 µg/mL; MIC Range (Moraxella catarrhalis; [3]): ≦0.004-0.03^ μg/ml; bacterial growth compared to early control (S. aureus (ATCC 29213); [4]): held the bacterial growth of SA 29213 to at least the point of stasis; log reduction in burdens compared to time-matched control (S. aureus (ATCC 29213); [4]): ~1.3 log; log reduction in burdens compared to time-matched control (S. aureus (ATCC 29213); 8 hours after the first dose, 30 and 60 mg/kg oral): ~2 log; decrease of bacterial burden compared to early control (S. aureus (ATCC 29213); 8 hours after the first dose, 60 and 100 mg/kg (so in the source)): 0.5-0.6 logs; log reduction compared to early control (S. aureus (ATCC 29213); 24 hours, second dose at 12 hours, 10 mg/kg): approximately 0.8 log; log reductions compared to early control (S. aureus (ATCC 29213); 24 hours, second dose at 12 hours, 30 and 60 mg/kg): 1.1-1.2 log; decrease in bacterial density compared to late control (S. aureus (ATCC 29213); 24 hours, second dose at 12 hours, all treatment groups (10, 30, 60 mg/kg)): 2.4-2.8 logs; Median Thigh Burden (Log cfu/mL) (S. aureus (ATCC 29213); Table 8: 10 mg/kg oral gavage, single treatment (QD), 8 Hours): 5.42 Log cfu/mL; Median Thigh Burden (Log cfu/mL) (S. aureus (ATCC 29213); Table 8: 10 mg/kg oral, 2 doses 12 hours apart (q12 h), 24 Hours): 4.59 Log cfu/mL; Log Difference vs. Early Control (S. aureus (ATCC 29213); [5]): 0.05; Log Reduction vs. Late Control (8-hour) (S. aureus (ATCC 29213); [5]): −1.36; Log Difference vs. Early Control (S. aureus (ATCC 29213); [6]): −0.78; Log Difference vs. Late Control (24-hour) (S. aureus (ATCC 29213); [6]): −2.40; Log Difference vs. Early Control (S. aureus (ATCC 29213); [7]): −0.62; Log Reduction vs. Late Control (8-hour) (S. aureus (ATCC 29213); [7]): −2.02; Median Thigh Burden (Log cfu/mL) (S. aureus (ATCC 29213); [7]): 4.75 Log cfu/mL; Log Difference vs. Early Control (S. aureus (ATCC 29213); [8]): −1.06; Log Difference vs. Late Control (24-hour) (S. aureus (ATCC 29213); [8]): −2.68; Median Thigh Burden (Log cfu/mL) (S. aureus (ATCC 29213); [8]): 4.31 Log cfu/mL; Log Difference vs. Early Control (S. aureus (ATCC 29213); [9]): −0.57; Log Reduction vs. Late Control (8-hour) (S. aureus (ATCC 29213); [9]): −1.97; Median Thigh Burden (Log cfu/mL) (S. aureus (ATCC 29213); [9]): 4.80 Log cfu/mL; Log Difference vs. Early Control (S. aureus (ATCC 29213); [10]): −1.18; Log Difference vs. Late Control (24-hour) (S. aureus (ATCC 29213); [10]): −2.80; Median Thigh Burden (Log cfu/mL) (S. aureus (ATCC 29213); [10]): 4.19 Log cfu/mL; MIC90 (Proteus mirabilis): > 8 µg/mL; MIC (Bacillus cereus; ATCC10987, Bacillus cereus ATCC 10987): 0.031 µg/mL; MIC (Bacillus cereus; ATCC14579, Bacillus cereus ATCC 14579): 0.031 µg/mL

Which results are given for `CCNC(=O)Nc1nc2cc(-c3cnc(C(C)(C)OP(=O)([O-])[O-])nc3)c(F)c([C@H]3CCCO3)c2[nH]1.[Na+].[Na+]` [Compound W, disodium (R)-2-(5-(2-(3-ethylureido)-6-fluoro-7-(tetrahydrofuran-2-yl)-1H-benzo[d]imidazol-5-yl)pyrimidin-2-yl)propan-2-yl phosphate]?
MIC (Haemophilus influenzae; [1]): 0.25 µg/mL; MIC (Escherichia coli; Escherichia coli AG100 WT): > 16 µg/mL; solubility at 96 h (Aqueous solubility study; aqueous buffer, thermodynamic from solid, water, pH 4.39, crystalline solid form, 96 hours at room temperature): 250 µg/mL
